The text below walks through data of paper PMC12627627 (Nature Communications, 2025).

What all share (format): binding
One assay concerns the target T1, R12 domain of RyR1 (Homo sapiens, UniProt P21817).
T1 construct: RyR1 854–1054, RyR2 865–1065, RyR3 853–1053; made in house; host or cells: E. coli BL21 (DE3)
T1 sequence (P21817 854-1054): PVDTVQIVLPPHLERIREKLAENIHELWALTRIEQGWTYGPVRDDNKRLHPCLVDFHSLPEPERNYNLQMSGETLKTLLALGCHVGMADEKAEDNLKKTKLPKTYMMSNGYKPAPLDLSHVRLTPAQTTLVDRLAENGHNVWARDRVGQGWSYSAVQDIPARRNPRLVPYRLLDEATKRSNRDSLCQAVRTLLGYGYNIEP
Put plainly: ITC, R12 domain of RyR1. Conditions: AMP-PCP or ADP alone, without DAN/AZU (Supplementary Fig. 1). The method, then:
(§1) The plasmids were subsequently transformed into E. coli BL21 (DE3) cells (NEB, USA) and cultured in Luria-Bertani (LB) media at 37 °C. Protein expression was induced with 0.4 mM isopropyl β-D-thiogalactoside (IPTG) when the optical density (OD)600 reached ~0.8, followed by incubation at 18 °C for 12 h. The cells were harvested via centrifugation at 5,000 × g for 15 min at 4 °C and homogenized in Buffer A (10 mM HEPES, pH 7.4, 250 mM KCl) supplemented with 25 µg/mL DNaseI, 25 µg/mL lysozyme, 1 mM phenylmethylsulfonyl fluoride (PMSF), and 20 mM imidazole. The homogenate was centrifuged at 12,000 × g for 45 min, and the supernatant was filtered through a syringe filter (0.22 µm).
(§2) Purified R12 domain protein from the three RyR isoforms, fused with hexahistidine-tagged MBP (HMT-R12) was dialyzed overnight at 4 °C in ITC buffer (200 mM HEPES, pH 7.4, 150 mM KCl). ITC experiments were performed using a PEAQ-ITC instrument (Malvern, UK) at 25 °C with a stirring speed of 750 rpm. […] For the ternary binding experiments, 500 μM or 5 mM AMP-PCP/ADP was preincubated with both the titrants and titrates. […] The data was fit to a one-site fitting model after background buffer subtraction. The RyR1 R12 mutants were generated using a QuikChange mutagenesis kit (Stratagene) according to the manufacturer’s protocol, with primer sequences listed in Supplementary Table 3.

The target in a further assay is T2, R12 domain of RyR2 (Homo sapiens, UniProt Q92736).
T2 construct: RyR1 854–1054, RyR2 865–1065, RyR3 853–1053; made in house; host or cells: E. coli BL21 (DE3)
T2 sequence (Q92736 865-1065): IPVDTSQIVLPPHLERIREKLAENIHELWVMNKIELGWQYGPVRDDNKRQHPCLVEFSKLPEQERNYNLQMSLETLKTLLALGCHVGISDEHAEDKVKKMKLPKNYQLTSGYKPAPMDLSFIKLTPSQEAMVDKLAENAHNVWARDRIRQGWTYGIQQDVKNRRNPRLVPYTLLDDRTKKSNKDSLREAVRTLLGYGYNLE
Briefly: ITC, R12 domain of RyR2. Conditions: absence or presence of AMP-PCP or ADP. The method, then:
as §1, §2
On the technique in general: ITC needs no label: the signal is the heat of the interaction.

For the next assay, the target named is T3, R12 domain of RyR3 (Homo sapiens, UniProt Q15413).
T3 construct: RyR1 854–1054, RyR2 865–1065, RyR3 853–1053; made in house; host or cells: E. coli BL21 (DE3)
T3 sequence (Q15413 853-1053): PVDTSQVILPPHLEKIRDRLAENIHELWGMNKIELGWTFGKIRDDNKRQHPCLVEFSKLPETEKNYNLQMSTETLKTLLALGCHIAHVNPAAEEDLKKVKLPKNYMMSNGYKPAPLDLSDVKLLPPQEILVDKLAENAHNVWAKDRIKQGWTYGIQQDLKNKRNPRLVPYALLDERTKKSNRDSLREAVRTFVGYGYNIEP
Briefly: ITC, R12 domain of RyR3. The method, then:
as §1, §2

As for `Nc1ncnc2c1ncn2[C@@H]1O[C@H](COP(=O)(O)OP(=O)(O)O)[C@@H](O)[C@H]1O` [ADP], the “binding of nucleotide alone by ITC” value at R12 domain of RyR1 is on record as “did not exhibit detectable binding”.

With `Nc1ncnc2c1ncn2[C@@H]1O[C@H](COP(=O)(O)OP(=O)(O)CP(=O)(O)O)[C@@H](O)[C@H]1O` [AMP-PCP], the “binding of nucleotide alone by ITC” value at R12 domain of RyR1 is recorded as “did not exhibit detectable binding”.

For the molecule `O=C1CN(/N=C/c2ccc(-c3ccc([N+](=O)[O-])cc3)o2)C(O)=N1` [DAN, Dantrolene], the “binding to RyR2 R12 domain by ITC” value on R12 domain of RyR2 is reported as “neither DAN nor AZU exhibited detectable binding”. Also, the Kd (as a rule, the constant that tells how readily two partners part at equilibrium) stood at 259 ± 31 nM at R12 domain of RyR3 (RyR3 R12 + 500 µM ADP); 72 ± 20 nM at R12 domain of RyR3 (RyR3 R12 + 500 µM AMP-PCP); 60 ± 9 nM on R12 domain of RyR3 (RyR3 R12 + 5 mM ADP); 26 ± 10 nM at R12 domain of RyR3 (RyR3 R12 + 5 mM AMP-PCP); 235000 ± 122000 nM on R12 domain of RyR3 (RyR3 R12, no nucleotide, ITC 25 °C). Besides, the “No of Sites (N)” value at R12 domain of RyR3 (RyR3 R12 + 500 µM ADP) turned out to be 0.461 ± 0.26; at R12 domain of RyR3 (RyR3 R12 + 500 µM AMP-PCP) it was 0.726 ± 0.53; on R12 domain of RyR3 (RyR3 R12 + 5 mM ADP) it was 0.606 ± 0.23; at R12 domain of RyR3 (RyR3 R12 + 5 mM AMP-PCP) it was 0.842 ± 0.36; at R12 domain of RyR3 (RyR3 R12, no nucleotide), 0.651 ± 0.11. Also, the ΔH at R12 domain of RyR3 (RyR3 R12 + 500 µM ADP) is -5.53 ± 0.34 kcal/mol; at R12 domain of RyR3 (RyR3 R12 + 500 µM AMP-PCP) it was -8.63 ± 0.14 kcal/mol; at R12 domain of RyR3 (RyR3 R12 + 5 mM ADP), -8.21 ± 0.75 kcal/mol; on R12 domain of RyR3 (RyR3 R12 + 5 mM AMP-PCP), -8.07 ± 0.10 kcal/mol; on R12 domain of RyR3 (RyR3 R12, no nucleotide) it was -80 kcal/mol. Also, the “−TΔS” value was -3.46 kcal/mol at R12 domain of RyR3 (RyR3 R12 + 500 µM ADP); -1.11 kcal/mol at R12 domain of RyR3 (RyR3 R12 + 500 µM AMP-PCP); -1.64 kcal/mol on R12 domain of RyR3 (RyR3 R12 + 5 mM ADP); -2.27 kcal/mol on R12 domain of RyR3 (RyR3 R12 + 5 mM AMP-PCP); 75.60 kcal/mol on R12 domain of RyR3 (RyR3 R12, no nucleotide).
